What all share (assay type): cell-based
The test system of experiment [1] is Pseudomonas aeruginosa ATCC 27853. Put plainly: Standard EPI assay: levofloxacin MIC with EPI. As to conditions: P. aeruginosa ATCC 27853; for Enhanced Activity in P. aeruginosa (fold enhancement of antibiotic activity / EPI concentration): levofloxacin as antibiotic. The protocol: (§1) MIC assays were conducted in accordance with Clinical and Laboratory Standards Institute (CLSI) guidelines for broth microdilution.
(§2) The EPI assay for the purposes of these studies represents a MIC assay in which the MIC of the antibiotic against the bacteria is tested in the presence of an experimental efflux pump inhibitor (EPI). The highest concentration of the EPI present in the assay typically is ½ of the intrinsic MIC of the compound. If the intrinsic MIC of the EPI is greater than 100 μg/mL, the EPI assay was tested with 50 μg/mL. Using serial dilutions of the EPI, its enhancement of antibiotic activity was then evaluated. The relative EPI activity was decided by comparing the MIC of the antibiotic in the presence of the EPI compound with the intrinsic MIC of the antibiotic alone. For the evaluation of the efficacy of an EPI against bacteria that were pre-exposed to an antibiotic, the inoculum of bacteria that used was developed from a bacterial culture isolated as a single colony following exposure at ½ the MIIC of the antibiotic (so as to induce efflux pump expression), was to be used in combination with the EPI.
(§3) In our standard EPI assay, the MIC of the test antibiotic is determined in the absence and presence of sub-inhibitory concentrations of the EPI. Initially, the sub-inhibitory concentration used was ½×MIC of the EPI. […] The MIC of levofloxacin against P. aeruginosa ATCC 27853 in the absence of EPI is 1 μg/mL. […] Similar methodology was employed to examine the synergy with Escherichia coli ATCC 25922 in the presence of varied concentrations of these EPIs using clarithromycin as the antibiotic.

In experiment [2] the test system is Escherichia coli ATCC 25922. Put plainly: Standard EPI assay: clarithromycin MIC with EPI. As to conditions: clarithromycin as antibiotic, E. coli ATCC 25922. The protocol: as §1, §2, §3
The subject of the next experiment is P. aeruginosa ATCC 27853. Put plainly: Intrinsic MIC assay (broth microdilution). The conditions noted are these: Pseudomonas aeruginosa. The protocol: as §1
The intrinsic MIC of the experimental EPIs was tested with the method described. The 2-fold serial dilution begins with 100 μg/mL of tested compound in the first column of the 96-well plates.
A general note: Dilution methods test growth across graded concentrations, often in twofold steps.

Where a name gives a salt, the structure may show the parent alone. Read-outs that look alike come from different tables or passages of the source.

Take `Cl.Cl.NCCC(N)CNC(=O)c1nc2cc(-c3ccc(F)cc3)ccc2[nH]1` (stereo in doubt) [Example 12, (S)-4-(5-(4-fluorophenyl)-1H-benzo[d]imidazole-2-carboxamido) butane-1,3-diaminium Chloride]: the “Enhanced Activity in P. aeruginosa (fold enhancement of antibiotic activity / EPI concentration)” value in experiment [1] (EPI at 12.5 (μg)) is listed as 4×/12.5. Also, the “Enhanced Activity in E. coli (fold enhancement of antibiotic activity / EPI concentration)” value in experiment [2] (EPI at 50 (μg)) was 8×/50.

With `NCCC[C@H](N)CNC(=O)c1nc2cc(-c3ccc(F)cc3)c(-c3ccc(F)cc3)cc2[nH]1` [Example 1, (S)—N-(2,5-diaminopentyl)-5,6-bis(4-fluorophenyl)-1H-benzo[d]imidazole-2-carboxamide Dihydrochloride], in experiment [2] (EPI at 6.25 (μg)), the “Enhanced Activity in E. coli (fold enhancement of antibiotic activity / EPI concentration)” value is 512×/6.25.

Turning to `NCCC[C@H](N)CNC(=O)c1nc2cc(-c3ccc(F)cc3)cc(-c3ccc(F)cc3)c2[nH]1` [Example 2, (S)—N-(2,5-diaminopentyl)-5,7-bis(4-fluorophenyl)-1H-benzo[d]imidazole-2-carboxamide Dihydrochloride], the “Enhanced Activity in P. aeruginosa (fold enhancement of antibiotic activity / EPI concentration)” value in experiment [1] (EPI at 12.5 (μg)) turned out to be 1×/12.5.

Turning to `NCCC[C@H](N)CNC(=O)c1nc2cc(-c3ccc(F)cc3)cc(C(F)(F)F)c2[nH]1` [Example 3, (S)—N-(2,5-diaminopentyl)-5-(4-fluorophenyl)-7-(trifluoromethyl)-1H-benzo[d]imidazole-2-carboxamide Dihydrochloride], the MIC with P. aeruginosa ATCC 27853 (ATCC27853, read-out: intrinsic MIC of the EPI) came to 25 mg/L. In experiment [1] (6.25 μg/mL of Example 3), the “MIC of levofloxacin in the presence of EPI” value came to 0.016 mg/L and the “reduction of the MIC of levofloxacin relative to absence of EPI” value came to 64 fold. In addition, the “Enhanced Activity in P. aeruginosa (fold enhancement of antibiotic activity / EPI concentration)” value in experiment [1] (EPI at 12.5 (μg)) was found to be 64×/12.5. The “Enhanced Activity in E. coli (fold enhancement of antibiotic activity / EPI concentration)” value in experiment [2] (EPI at 6.25 (μg)) is reported as 8×/6.25.

As to `Cn1c(C(=O)NC[C@@H](N)CCCN)nc2cc(-c3ccc(F)cc3)cc(C(F)(F)F)c21` [Example 4, (S)—N-(2,5-diaminopentyl)-5-(4-fluorophenyl)-1-methyl-7-(trifluoromethyl)-1H-benzo[d]imidazole-2-carboxamide Dihydrochloride], the “Enhanced Activity in P. aeruginosa (fold enhancement of antibiotic activity / EPI concentration)” value in experiment [1] (EPI at 12.5 (μg)) is listed as 8×/12.5. Also, the “Enhanced Activity in E. coli (fold enhancement of antibiotic activity / EPI concentration)” value in experiment [2] (EPI at 50 (μg)) stood at 512×/50.

On to `Cn1c(C(=O)NC[C@@H](N)CCCN)nc2cc(-c3ccc(F)cc3)ccc21` [Example 5, (S)—N-(2,5-diaminopentyl)-5-(4-fluorophenyl)-1-methyl-1H-benzo[d]imidazole-2-carboxamide Dihydrochloride], for which the “Enhanced Activity in E. coli (fold enhancement of antibiotic activity / EPI concentration)” value in experiment [2] (EPI at 50 (μg)) is 64×/50.

As to `N#Cc1cccc(-c2ccc3[nH]c(C(=O)NC[C@@H](N)CCCN)nc3c2)c1` [Example 7, (S)-5-(3-cyanophenyl)-N-(2,5-diaminopentyl)-1H-benzo[d]imidazole-2-carboxamide Dihydrochloride], the “Enhanced Activity in P. aeruginosa (fold enhancement of antibiotic activity / EPI concentration)” value in experiment [1] (EPI at 12.5 (μg)) worked out at 4×/12.5.

For `COc1ccc(-c2ccc3[nH]c(C(=O)NC[C@@H](N)CCCN)nc3c2)cc1` [Example 8, (S)—N-(2,5-diaminopentyl)-5-(4-methoxyphenyl)-1H-benzo[d]imidazole-2-carboxamide Dihydrochloride], the “Enhanced Activity in P. aeruginosa (fold enhancement of antibiotic activity / EPI concentration)” value in experiment [1] (EPI at 12.5 (μg)) amounted to 2×/12.5. For the same compound, the “Enhanced Activity in E. coli (fold enhancement of antibiotic activity / EPI concentration)” value in experiment [2] (EPI at 50 (μg)) was determined as 2×/50.

For the compound `NCCC[C@H](N)c1nc2cc(-c3ccc(F)cc3)ccc2[nH]1` [Example 9, (S)-1-(5-(4-fluorophenyl)-1H-benzo[d]imidazol-2-yl)butane-1,4-diamine Dihydrochloride], the “Enhanced Activity in P. aeruginosa (fold enhancement of antibiotic activity / EPI concentration)” value in experiment [1] (EPI at 25 (μg)) worked out at 1×/25. Besides, in experiment [2] (EPI at 50 (μg)), the “Enhanced Activity in E. coli (fold enhancement of antibiotic activity / EPI concentration)” value was 256×/50.

As for `NCCC[C@H](N)CNC(=O)Cc1nc2ccc(-c3ccc(F)cc3)cc2[nH]1` [Example 10, (S)—N-(2,5-diaminopentyl)-2-(6-(4-fluorophenyl)-1H-benzo[d]imidazol-2-yl)acetamide Dihydrochloride], the “Enhanced Activity in E. coli (fold enhancement of antibiotic activity / EPI concentration)” value in experiment [2] (EPI at 50 (μg)) came out at 1×/50.

Turning to `CC(C)(N)C1CN[C@H](CNC(=O)c2nc3ccc(-c4ccc(F)cc4)cc3[nH]2)C1` (stereo partly drawn) [Example 11, N-(((2S)-4-(2-aminopropan-2-yl)pyrrolidin-2-yl)methyl)-6-(4-fluorophenyl)-1H-benzo[d]imidazole-2-carboxamide Dihydrochloride], in experiment [1] (EPI at 12.5 (μg)), the “Enhanced Activity in P. aeruginosa (fold enhancement of antibiotic activity / EPI concentration)” value is on record as 2×/12.5.

As to `Cl.Cl.NC[C@H](N)CNC(=O)c1nc2ccc(-c3ccc(F)cc3)cc2[nH]1` [Example 13, (S)-3-(5-(4-fluorophenyl)-1H-benzo[d]imidazole-2-carboxamido) propane-1,2-diaminium Dihydrochloride], the “Enhanced Activity in P. aeruginosa (fold enhancement of antibiotic activity / EPI concentration)” value in experiment [1] (EPI at 25 (μg)) is on record as 4×/25.

Consider `Cl.Cl.N=C(N)NCCC[C@H](N)CNC(=O)c1nc2cc(-c3ccc(F)cc3)ccc2[nH]1` [Example 14, (S)-5-((amino(iminio)methyl)amino)-1-(5-(4-fluorophenyl)-1H-benzo[d]imidazole-2-carboxamido) pentan-2-aminium Chloride], for which, in experiment [1] (EPI at 12.5 (μg)), the “Enhanced Activity in P. aeruginosa (fold enhancement of antibiotic activity / EPI concentration)” value is 4×/12.5. Moreover, the “Enhanced Activity in E. coli (fold enhancement of antibiotic activity / EPI concentration)” value in experiment [2] (EPI at 50 (μg)) was determined as 2×/50.

Turning to `COc1ccc(-c2ccc3nc(C(=O)NC[C@@H](N)CCN)[nH]c3c2)cc1.Cl.Cl` [Example 15, (S)-4-(5-(4-methoxyphenyl)-1H-benzo[d]imidazole-2-carboxamido)butane-1,3-diaminium Dihydrochloride], the “Enhanced Activity in P. aeruginosa (fold enhancement of antibiotic activity / EPI concentration)” value in experiment [1] (EPI at 12.5 (μg)) amounted to 2×/12.5. For the same compound, the “Enhanced Activity in E. coli (fold enhancement of antibiotic activity / EPI concentration)” value in experiment [2] (EPI at 50 (μg)) came to 2×/50.

Take `CC(C)C(N)CC[C@H](N)CNC(=O)c1nc2cc(-c3ccc(F)cc3)ccc2[nH]1` (stereo partly drawn) [Example 16, N-((2S)-2,5-diamino-6-methylheptyl)-5-(4-fluorophenyl)-1H-benzo[d]imidazole-2-carboxamide Dihydrochloride]: in experiment [2] (EPI at 6.25 (μg)), the “Enhanced Activity in E. coli (fold enhancement of antibiotic activity / EPI concentration)” value was found to be 4×/6.25.

As to `NCCC[C@H](N)CNC(=O)c1nc2cc(-c3ccc(F)cc3)ccc2[nH]1` [Example 17, (S)—N-(2,5-diaminopentyl)-5-(4-fluorophenyl)-1H-benzo[d]imidazole-2-carboxamide Dihydrochloride], in experiment [2] (EPI at 50 (μg)), the “Enhanced Activity in E. coli (fold enhancement of antibiotic activity / EPI concentration)” value is 256×/50.

Take `NCCC[C@@H](N)CNC(=O)c1nc2cc(-c3ccc(F)cc3)ccc2[nH]1` [Example 18, (R)—N-(2,5-diaminopentyl)-5-(4-fluorophenyl)-1H-benzo[d]imidazole-2-carboxamide Dihydrochloride]: in experiment [2] (EPI at 6.25 (μg)), the “Enhanced Activity in E. coli (fold enhancement of antibiotic activity / EPI concentration)” value was 2×/6.25.

With `NC[C@@H]1CN[C@H](CNC(=O)c2nc3cc(-c4ccc(F)cc4)ccc3[nH]2)C1` [Example 21, N-(((2S,4R)-4-(aminomethyl)pyrrolidin-2-yl)methyl)-5-(4-fluorophenyl)-1H-benzo[d]imidazole-2-carboxamide Dihydrochloride], the “Enhanced Activity in P. aeruginosa (fold enhancement of antibiotic activity / EPI concentration)” value in experiment [1] (EPI at 25 (μg)) worked out at 8×/25. The “Enhanced Activity in E. coli (fold enhancement of antibiotic activity / EPI concentration)” value in experiment [2] (EPI at 50 (μg)) stood at 256×/50.

With `NCCC[C@H](N)CNC(=O)c1nc2cc(Br)ccc2[nH]1` [Example 23, (S)-5-bromo-N-(2,5-diaminopentyl)-1H-benzo[d]imidazole-2-carboxamide Hydrogen Chloride Salt], the “Enhanced Activity in E. coli (fold enhancement of antibiotic activity / EPI concentration)” value in experiment [2] (EPI at 50 (μg)) is on record as 2×/50 μg.

As for `Cl.Cl.NCCC[C@H](N)CNC(=O)c1nc2ccc(-c3ccc(N)cc3)cc2[nH]1` [Example 25, (S)-6-(4-aminophenyl)-N-(2,5-diaminopentyl)-1H-benzo[d]imidazole-2-carboxamide Hydrogen Chloride Salt], in experiment [2] (EPI at 50 (μg)), the “Enhanced Activity in E. coli (fold enhancement of antibiotic activity / EPI concentration)” value turned out to be 2×/50 μg.

For `Cl.Cl.Cn1c(C(=O)NC[C@@H](N)CCCN)nc2cc(-c3ccc(F)cc3)c(-c3ccc(F)cc3)cc21` [Example 30, (S)—N-(2,5-diaminopentyl)-5,6-bis(4-fluorophenyl)-1-methyl-1H-benzo[d]imidazole-2-carboxamidehydrogen Chloride Salt], the “Enhanced Activity in E. coli (fold enhancement of antibiotic activity / EPI concentration)” value in experiment [2] (EPI at 6.25 (μg)) amounted to 512×/6.25 μg.

As to `Cl.Cl.NCCC[C@H](N)CNC(=O)c1nc2cc(-c3ccc(F)cc3)c(-c3ccc(F)cc3)cc2n1Cc1ccccc1` [Example 31, (S)-1-benzyl-N-(2,5-diaminopentyl)-5,6-bis(4-fluorophenyl)-1H-benzo[d]imidazole-2-carboxamide Hydrogen Chloride Salt], the “Enhanced Activity in E. coli (fold enhancement of antibiotic activity / EPI concentration)” value in experiment [2] (EPI at 6.25 (μg)) is 8×/6.25 μg.

`C[C@H]1COc2c(N3CCN(C)CC3)c(F)cc3c(=O)c(C(=O)O)cn1c23` [levofloxacin, reference compound]: the minimal inhibitory concentration (MIC) in the experiment on P. aeruginosa ATCC 27853 (ATCC27853, P. aeruginosa ATCC 27853, read-out: MIC of levofloxacin in the absence of EPI) worked out at 1 mg/L.

One may read the MIC as the smallest concentration in the dilution series that meets the test's criterion for growth inhibition.

The record behind these values is patent US11180459B2, “Bacterial efflux pump inhibitors” (RUTGERS, THE STATE UNIVERSITY OF NEW JERSEY, priority 2017, dated 2021).
